Measured values taken from PubChem BioAssay AID330 (DTP/NCI, 2004).
Where “and” joins values, the source holds several entries; their conditions need not be identical. Equal entries are not always repeated. Inconclusive results and toxic doses are left out. Rule for the calls: active = survival T/C of 150% or more; inactive = T/C below 125% in these data.

Test system: P388 leukemia ip, CD2F1 mice, survival T/C
Test: NCI In Vivo Anticancer Drug Screen. Data for tumor model P388 Leukemia (intraperitoneal) in CD2F1 (CDF1) mice
Conditions: endpoint: median survival time, higher = longer survival
Method in brief: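 Mice carrying the transplanted tumor received test compound or vehicle. Survival was recorded in each group, and the value is the treated-group measurement divided by that of the vehicle-treated control group.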

[1] = dose: 60.0 mg/kg/injection, schedule: Q01DX005 (ip), vehicle: Klucel (hydroxypropylcellulose) (HPC)
[2] = dose: 120.0 mg/kg/injection, schedule: Q01DX005 (ip), vehicle: Klucel (hydroxypropylcellulose) (HPC)
[3] = dose: 50.0 mg/kg/injection, schedule: Q01DX005 (ip), vehicle: saline with Tween-80
[4] = dose: 100.0 mg/kg/injection, schedule: Q01DX005 (ip), vehicle: saline with Tween-80
[5] = dose: 200.0 mg/kg/injection, schedule: Q01DX005 (ip), vehicle: saline with Tween-80
[6] = dose: 25.0 mg/kg/injection, schedule: Q01DX005 (ip), vehicle: Klucel (hydroxypropylcellulose) (HPC)
[7] = dose: 50.0 mg/kg/injection, schedule: Q01DX005 (ip), vehicle: Klucel (hydroxypropylcellulose) (HPC)
[8] = dose: 60.0 mg/kg/injection, schedule: Q01DX005 (ip), vehicle: saline with Tween-80
[9] = dose: 120.0 mg/kg/injection, schedule: Q01DX005 (ip), vehicle: saline with Tween-80
[10] = dose: 240.0 mg/kg/injection, schedule: Q01DX005 (ip), vehicle: saline with Tween-80
[11] = dose: 50.0 mg/kg/injection, schedule: Q01DX009 (ip), vehicle: saline with Tween-80
[12] = dose: 100.0 mg/kg/injection, schedule: Q01DX009 (ip), vehicle: saline with Tween-80

Measured: T/C

C1CN1Sc1nc(SN2CC2)nc(SN2CC2)n1
inactive: [1] 100 % of control | [2] 97 % of control

CCC1(N(C)C)C(=O)NC(=O)N(C)C1=O (stereo not drawn)
inactive: [1] 103 % of control | [2] 101 % of control | dose: 2400.0 mg/kg/injection, schedule: Q01DX005 (ip), vehicle: Klucel (hydroxypropylcellulose) (HPC) 104 % of control

C/C(=N\N=C(/[Se])N1CCC(C)CC1)c1ccccn1
inactive: [3] 107 % of control | [4] 100 % of control | [5] 100 % of control

COc1cccc(C2OC3=C(Nc4ccccc4N3)C2=O)c1 (stereo not drawn)
inactive: [6] 98 % of control | [7] 100 % of control | [1] 97 % of control | dose: 100.0 mg/kg/injection, schedule: Q01DX005 (ip), vehicle: Klucel (hydroxypropylcellulose) (HPC) 94 % of control | [2] 95 % of control | dose: 200.0 mg/kg/injection, schedule: Q01DX005 (ip), vehicle: Klucel (hydroxypropylcellulose) (HPC) 94 % of control | dose: 240.0 mg/kg/injection, schedule: Q01DX005 (ip), vehicle: Klucel (hydroxypropylcellulose) (HPC) 94 % of control | dose: 400.0 mg/kg/injection, schedule: Q01DX005 (ip), vehicle: Klucel (hydroxypropylcellulose) (HPC) 98 % of control

Cc1cc(NS(=O)(=O)c2ccc(N=Nc3c(O)n(-c4ccccc4)n(-c4ccccc4)c3=O)cc2)no1
inactive: dose: 50.0 mg/kg/injection, schedule: Q01DX009 (ip), vehicle: Klucel (hydroxypropylcellulose) (HPC) 102 % of control | dose: 100.0 mg/kg/injection, schedule: Q01DX009 (ip), vehicle: Klucel (hydroxypropylcellulose) (HPC) 100 % of control | dose: 200.0 mg/kg/injection, schedule: Q01DX009 (ip), vehicle: Klucel (hydroxypropylcellulose) (HPC) 92 % of control

O=C1C=C2c3ccccc3CC(C(=O)O)C2CC1 (stereo not drawn)
inactive: [8] 100 % of control | [9] 100 % of control | [10] 102 % of control

CC(O)[C@H]1CC[C@H]2[C@@H]3CC(=O)[C@H]4C[C@H](O)[C@H](O)C[C@]4(C)[C@H]3CC[C@]12C (stereo partly drawn)
inactive: dose: 100.0 mg/kg/injection, schedule: Q04DX002 (ip), vehicle: saline with Tween-80 91 % of control | dose: 200.0 mg/kg/injection, schedule: Q04DX002 (ip), vehicle: saline with Tween-80 90 % of control | dose: 400.0 mg/kg/injection, schedule: Q04DX002 (ip), vehicle: saline with Tween-80 90 % of control

CC(C)=C1C2C=CC1C1C2C(=O)C2OC2(CO)C1O (stereo not drawn)
inactive: [3] 100 % of control | [4] 100 % of control | [5] 101 % of control

O=C1c2cccnc2-c2ncccc21
inactive: [8] 93 % of control | [9] 91 % of control

Nc1cccc(CCCCc2ccccc2)c1
inactive: dose: 100.0 mg/kg/injection, schedule: Q04DX002 (ip), vehicle: saline 103 % of control | dose: 200.0 mg/kg/injection, schedule: Q04DX002 (ip), vehicle: saline 110 % of control

COC(=O)C(C)C(O)C(C)N (stereo not drawn)
inactive: dose: 12.5 mg/kg/injection, schedule: Q01DX009 (ip), vehicle: water 107 % of control | dose: 25.0 mg/kg/injection, schedule: Q01DX009 (ip), vehicle: water 118 % of control | dose: 50.0 mg/kg/injection, schedule: Q01DX009 (ip), vehicle: water 106 % of control | dose: 100.0 mg/kg/injection, schedule: Q01DX009 (ip), vehicle: water 98 % of control | dose: 200.0 mg/kg/injection, schedule: Q01DX009 (ip), vehicle: water 100 % of control

CN1CCOP(=O)(c2ccccc2)N1 (stereo not drawn)
inactive: [8] 99 % of control | [9] 100 % of control | [10] 89 % of control

CCCCCCCC(=O)Nc1ccc(CC)cc1
inactive: dose: 100.0 mg/kg/injection, schedule: Q04DX003 (ip), vehicle: other 109 % of control | dose: 200.0 mg/kg/injection, schedule: Q04DX003 (ip), vehicle: other 90 % of control | dose: 400.0 mg/kg/injection, schedule: Q04DX003 (ip), vehicle: other 118 % of control

Cc1ccc(S(=O)(=O)N/N=C/c2ccoc2)cc1
inactive: dose: 12.5 mg/kg/injection, schedule: Q01DX005 (ip), vehicle: distilled water + Tween-80 100 % of control | dose: 25.0 mg/kg/injection, schedule: Q01DX005 (ip), vehicle: distilled water + Tween-80 102 % of control | dose: 50.0 mg/kg/injection, schedule: Q01DX005 (ip), vehicle: distilled water + Tween-80 93 % of control | dose: 100.0 mg/kg/injection, schedule: Q01DX005 (ip), vehicle: distilled water + Tween-80 102 % of control | dose: 200.0 mg/kg/injection, schedule: Q01DX005 (ip), vehicle: distilled water + Tween-80 100 % of control

COCOC(/C=C/C=C/CCCCOCc1ccccc1)CCC/C=C(\C)CO (stereo not drawn)
inactive: dose: 50.0 mg/kg/injection, schedule: Q01DX001 (ip), vehicle: saline with Tween-80 104 % of control | dose: 100.0 mg/kg/injection, schedule: Q01DX001 (ip), vehicle: saline with Tween-80 102 % of control | dose: 200.0 mg/kg/injection, schedule: Q01DX001 (ip), vehicle: saline with Tween-80 103 % of control

Nc1ncnc2c1cnn2Cc1ccc(Cl)cc1
inactive: [11] 100 % of control | [12] 100 % of control

CC1(c2ccccc2)CCOCO1 (stereo not drawn)
inactive: [3] 106 % of control | [4] 98 % of control | [5] 104 % of control

C=CCOc1cc2c(cc1C(C)c1ccc(F)cc1)OCO2 (stereo not drawn)
inactive: [3] 100 % of control | [4] 104 % of control | [5] 100 % of control

COc1cc2c(NCCCCCO)ncnc2c(OC)c1OC
inactive: dose: 50.0 mg/kg/injection, schedule: Q01DX009 (ip), vehicle: saline 105 % of control | dose: 100.0 mg/kg/injection, schedule: Q01DX009 (ip), vehicle: saline 105 % of control | dose: 200.0 mg/kg/injection, schedule: Q01DX009 (ip), vehicle: saline 102 % of control

BrCC1(CBr)OCCO1
inactive: [11] 106 % of control

CC(=O)Nc1ccc(Cl)cc1C(O)c1ccccc1 (stereo not drawn)
inactive: dose: 12.5 mg/kg/injection, schedule: Q01DX005 (ip), vehicle: Klucel (hydroxypropylcellulose) (HPC) 89 % of control | [6] 91 % of control | [7] 98 % of control and 99 % of control

COC1C(/C=C/C(=O)CCl)OC2OC(C)(C)OC21 (stereo not drawn)
inactive: dose: 3.12 mg/kg/injection, schedule: Q01DX005 (ip), vehicle: saline 108 % of control | dose: 6.25 mg/kg/injection, schedule: Q01DX005 (ip), vehicle: saline 108 % of control | dose: 12.5 mg/kg/injection, schedule: Q01DX005 (ip), vehicle: saline 105 % of control

COc1ccc2c(-c3ccc(O)cc3)c(-c3ccccc3)c(=O)oc2c1
inactive: [8] 86 % of control | [9] 97 % of control | [10] 89 % of control

O=c1c(N=Nc2ccc(Br)cc2)c(O)n(-c2ccccc2Cl)c(=S)n1-c1ccccc1
inactive: dose: 50.0 mg/kg/injection, schedule: Q01DX001 (ip), vehicle: Klucel (hydroxypropylcellulose) (HPC) 94 % of control | dose: 100.0 mg/kg/injection, schedule: Q01DX001 (ip), vehicle: Klucel (hydroxypropylcellulose) (HPC) 98 % of control | dose: 200.0 mg/kg/injection, schedule: Q01DX001 (ip), vehicle: Klucel (hydroxypropylcellulose) (HPC) 94 % of control

CCOC(=O)N1CC2C3CN(C(=O)OCC)C4CC3(C(=O)O)C1CC24C(=O)O
inactive: [11] 109 % of control | [12] 100 % of control | dose: 200.0 mg/kg/injection, schedule: Q01DX009 (ip), vehicle: saline with Tween-80 102 % of control
